Tests used:
[1] = test system: EGFR Exon 20 InsNPH Ba/F3; assay: CellTiter-Glo cell viability, EGFR Exon 20 InsNPH Ba/F3; assay type: cell-based; conditions: Mus musculus, BaF3, 72 h, read-out: EGFR Exon 20 InsNPH Ba/F3 CTG IC50
Procedure: (§1) The CellTiter-Glo Luminescent Cell Viability Assay (Promega) is a homogeneous method of determining the number of viable cells in culture. It is based on quantification of ATP, indicating the presence of metabolically active cells. Cells are seeded on day 1 at cell numbers that assure assay linearity and optimal signal intensity. After incubation for 24h in humidified chambers at 37°C and 5% CO2, compounds in DMSO are added at different concentrations. Cells are further incubated for 72 h at 37°C and 5% CO2. Cells treated with the compound vehicle DMSO are used as positive controls and cells treated with 10 µM Staurosporine serve as negative controls. At day 5 the CellTiter Glo Reagent is prepared according to the instructions of the kit (Promega Inc.): Reagent is mixed 1:1 with cell culture medium. Thereon, mixture and assay plates are equilibrated at room temperature for 20 min. Equal volumes of the reagent-medium-mixture is added to the volume of culture medium present in each well. The plates are mixed at ∼200 rpm for 2 minutes on an orbital shaker. The microplates are then incubated at room temperature for 10 minutes for stabilization of the luminescent signal. Following incubation the luminescence is recorded on a Victor microplate reader (Perkin Elmer) using a 200 ms integration time. The data is then analyzed with Excel using the XLFIT Plugin (dose response Fit 205) for IC50-determination. As quality control the Z'-factor is calculated from 16 positive and negative control values. Only assay results showing a Z'-factor ≥ 0.5 are used for further analysis.

EGFR L858R Ba/F3 = assay: CellTiter-Glo cell viability, EGFR L858R Ba/F3; assay type: cell-based; conditions: Mus musculus, BaF3, 72 h, read-out: EGFR L858R Ba/F3 CTG IC50 /
Procedure: as §1

EGFR wt = EGFR wt (Homo sapiens, UniProt P00533); assay: Lance assay, EGFR wt; conditions: biochemical Lance assay
[2] = test system: Her2 Exon 20 InsYVMA Ba/F3; assay: CellTiter-Glo cell viability, Her2 Exon 20 InsYVMA Ba/F3; assay type: cell-based; conditions: Mus musculus, BaF3, 72 h, read-out: Her2 Exon 20 InsYVMA Ba/F3 CTG IC50
Procedure: as §1

EGFR L858R = EGFR L858R (Homo sapiens, UniProt P00533, L858R); assay: Lance assay, EGFR L858R; conditions: biochemical Lance assay
EGFR L858R T790M Ba/F3 = assay: CellTiter-Glo cell viability, EGFR L858R T790M Ba/F3; assay type: cell-based; conditions: Mus musculus, BaF3, 72 h, read-out: EGFR L858R T790M Ba/F3 CTG IC50 /
Procedure: as §1

EGFR vIII Ba/F3 = assay: CellTiter-Glo cell viability, EGFR vIII Ba/F3; assay type: cell-based; conditions: Mus musculus, BaF3, 72 h, read-out: EGFR vIII Ba/F3 CTG IC50 /
Procedure: as §1

EGFR (del746-750) = EGFR (del746-750) (Homo sapiens, UniProt P00533, DEL746-750); assay: Lance assay, EGFR (del746-750); conditions: biochemical Lance assay
A431 = assay: CellTiter-Glo cell viability, A431; assay type: cell-based; conditions: Homo sapiens, A-431, 72 h, read-out: A431 CTG IC50
Procedure: as §1

HER2 INS YVMA = target: T1, HER2 INS YVMA (Homo sapiens, UniProt P04626, INS775YVMA); assay: Lance Kinase Activity Assay, Her2 Exon 20 InsYVMA; conditions: biochemical Lance assay
T1 construct: purchased DPF
Procedure: This protocol describes how the Lance Kinase Activity Assay was performed to determine IC50 values of compounds of general formula (I) against HER2 INS YVMA. The principle behind this enzymatic assay is based upon the phosphorylation of the Ulight-peptide substrate. It is detected by using a specific EU-labeled anti-phospho peptide antibody. The binding of the Eu labeled anti-phospho peptide antibody to the phosphorylated ULight labeled peptide gives rise to a FRET-signal. Binding of an inhibitor to the kinase prevents phosphorylation of the Ulight-substrate, resulting in a loss of FRET. In table 2 is summarized the relevant information for the LANCE assay. Table 2: Reagents, stock concentrations and final assay concentrations for Her2 INS YVMA.
The compounds of general formula (I) summarized in Table 3 were serial diluted from a 10 mM DMSO stock solution 1:3 over 8 steps in a total volume of 20 µl. For every sample, 8 µl of kinase-substrate mix was transferred into a suitable assay plate (e.g. Corning #3673). Compound was added via pintool transfer (10nl/well) using a Biomek FX robot (BeckmanCoulter). Reaction was started by addition of 2µl ATP working solution and mixed using variomag teleshaker (Thermo Fischer Scientific). After 1 h incubation at room temperature the reaction was stopped with 10µl detection mix containing the Eu-labeled phosphospecific antibody and 10mM EDTA. After a second incubation period of 1 h at room temperature the FRET signal was measured at 340 nm excitation, 665 nm and 615 nm emission (for the ULight-substrate and Eu-AB, respectively) with an Envision spectrophotometer (Perkin Elmer, Waltham, MA, USA) with 50 µs delay and 300 µs integration time. IC50 values were determined from the sigmoidal dose response curves with the software Quattro Workflow (Quattro GmbH, Munich, Germany).

EGFR T790M L858R = EGFR T790M L858R (Homo sapiens, UniProt P00533, L858R/T790M); assay: Lance assay, EGFR T790M L858R; conditions: biochemical Lance assay
Cuto-17 = assay: CellTiter-Glo cell viability, Cuto-17; assay type: cell-based; conditions: CUTO17, 72 h, read-out: Cuto-17 CTG IC50
Procedure: as §1

H1975 = assay: CellTiter-Glo cell viability, H1975; assay type: cell-based; conditions: Homo sapiens, NCI-H1975, 72 h, read-out: H1975 CTG IC50
Procedure: as §1

Sequence of EGFR wt (P00533 25-1210): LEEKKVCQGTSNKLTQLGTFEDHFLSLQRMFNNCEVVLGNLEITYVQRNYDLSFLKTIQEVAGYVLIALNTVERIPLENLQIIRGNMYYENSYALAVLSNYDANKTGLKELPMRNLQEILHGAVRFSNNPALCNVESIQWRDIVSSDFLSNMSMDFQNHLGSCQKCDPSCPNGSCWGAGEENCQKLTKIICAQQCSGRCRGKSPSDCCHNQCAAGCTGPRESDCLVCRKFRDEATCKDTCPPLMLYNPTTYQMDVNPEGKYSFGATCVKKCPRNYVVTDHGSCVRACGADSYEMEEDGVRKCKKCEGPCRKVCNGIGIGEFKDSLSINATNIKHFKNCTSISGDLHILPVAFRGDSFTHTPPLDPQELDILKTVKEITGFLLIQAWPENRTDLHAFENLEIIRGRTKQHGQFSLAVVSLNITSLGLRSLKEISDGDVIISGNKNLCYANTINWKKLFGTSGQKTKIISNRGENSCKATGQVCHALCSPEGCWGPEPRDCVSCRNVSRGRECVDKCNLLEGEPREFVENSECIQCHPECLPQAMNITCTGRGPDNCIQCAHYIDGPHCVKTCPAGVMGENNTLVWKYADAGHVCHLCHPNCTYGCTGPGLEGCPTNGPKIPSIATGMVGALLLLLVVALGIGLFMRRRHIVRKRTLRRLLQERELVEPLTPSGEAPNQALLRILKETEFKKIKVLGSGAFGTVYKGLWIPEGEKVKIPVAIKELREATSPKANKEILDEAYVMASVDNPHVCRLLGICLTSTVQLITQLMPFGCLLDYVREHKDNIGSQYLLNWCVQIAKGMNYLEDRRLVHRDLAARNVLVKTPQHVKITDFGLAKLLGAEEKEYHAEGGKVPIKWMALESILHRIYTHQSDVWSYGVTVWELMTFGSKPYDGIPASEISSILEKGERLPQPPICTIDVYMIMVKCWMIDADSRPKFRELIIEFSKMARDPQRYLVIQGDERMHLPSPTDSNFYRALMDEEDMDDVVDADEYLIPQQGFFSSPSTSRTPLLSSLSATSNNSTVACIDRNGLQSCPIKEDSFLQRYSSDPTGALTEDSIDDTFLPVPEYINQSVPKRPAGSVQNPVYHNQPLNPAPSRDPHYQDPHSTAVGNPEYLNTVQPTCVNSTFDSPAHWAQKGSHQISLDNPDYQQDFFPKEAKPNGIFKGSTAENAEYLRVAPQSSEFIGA
Sequence of EGFR T790M L858R (P00533 25-1210 T790M/L858R): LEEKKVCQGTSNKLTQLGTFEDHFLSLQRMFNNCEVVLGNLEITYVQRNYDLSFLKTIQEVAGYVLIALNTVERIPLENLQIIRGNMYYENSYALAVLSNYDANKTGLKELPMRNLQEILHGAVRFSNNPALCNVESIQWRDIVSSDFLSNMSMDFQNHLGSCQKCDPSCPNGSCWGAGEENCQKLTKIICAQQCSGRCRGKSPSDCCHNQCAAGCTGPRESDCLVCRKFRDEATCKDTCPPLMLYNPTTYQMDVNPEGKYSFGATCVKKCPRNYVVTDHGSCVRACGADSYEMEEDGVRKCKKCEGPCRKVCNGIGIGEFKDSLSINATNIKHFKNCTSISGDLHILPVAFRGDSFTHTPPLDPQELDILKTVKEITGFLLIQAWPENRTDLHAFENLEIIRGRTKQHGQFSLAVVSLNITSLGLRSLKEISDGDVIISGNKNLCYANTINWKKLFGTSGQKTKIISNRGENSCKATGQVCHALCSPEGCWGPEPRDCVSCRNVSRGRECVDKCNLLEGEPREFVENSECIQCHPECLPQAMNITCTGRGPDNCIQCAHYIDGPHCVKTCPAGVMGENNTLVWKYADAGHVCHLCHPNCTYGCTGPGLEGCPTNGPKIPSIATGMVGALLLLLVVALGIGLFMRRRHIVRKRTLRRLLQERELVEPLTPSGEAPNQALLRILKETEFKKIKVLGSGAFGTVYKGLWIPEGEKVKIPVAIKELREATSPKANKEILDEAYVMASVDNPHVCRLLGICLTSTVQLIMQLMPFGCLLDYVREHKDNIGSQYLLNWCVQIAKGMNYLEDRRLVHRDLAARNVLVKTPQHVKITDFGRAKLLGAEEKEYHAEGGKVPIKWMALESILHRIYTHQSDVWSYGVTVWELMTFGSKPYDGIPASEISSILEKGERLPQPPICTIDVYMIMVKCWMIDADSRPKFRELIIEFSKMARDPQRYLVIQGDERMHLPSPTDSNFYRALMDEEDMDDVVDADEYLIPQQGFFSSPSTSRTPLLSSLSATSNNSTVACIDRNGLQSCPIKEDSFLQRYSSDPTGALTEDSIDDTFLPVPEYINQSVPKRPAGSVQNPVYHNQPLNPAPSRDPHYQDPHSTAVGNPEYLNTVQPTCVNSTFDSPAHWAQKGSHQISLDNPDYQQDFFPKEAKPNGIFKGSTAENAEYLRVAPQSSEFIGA
Sequence of EGFR L858R (P00533 25-1210 L858R): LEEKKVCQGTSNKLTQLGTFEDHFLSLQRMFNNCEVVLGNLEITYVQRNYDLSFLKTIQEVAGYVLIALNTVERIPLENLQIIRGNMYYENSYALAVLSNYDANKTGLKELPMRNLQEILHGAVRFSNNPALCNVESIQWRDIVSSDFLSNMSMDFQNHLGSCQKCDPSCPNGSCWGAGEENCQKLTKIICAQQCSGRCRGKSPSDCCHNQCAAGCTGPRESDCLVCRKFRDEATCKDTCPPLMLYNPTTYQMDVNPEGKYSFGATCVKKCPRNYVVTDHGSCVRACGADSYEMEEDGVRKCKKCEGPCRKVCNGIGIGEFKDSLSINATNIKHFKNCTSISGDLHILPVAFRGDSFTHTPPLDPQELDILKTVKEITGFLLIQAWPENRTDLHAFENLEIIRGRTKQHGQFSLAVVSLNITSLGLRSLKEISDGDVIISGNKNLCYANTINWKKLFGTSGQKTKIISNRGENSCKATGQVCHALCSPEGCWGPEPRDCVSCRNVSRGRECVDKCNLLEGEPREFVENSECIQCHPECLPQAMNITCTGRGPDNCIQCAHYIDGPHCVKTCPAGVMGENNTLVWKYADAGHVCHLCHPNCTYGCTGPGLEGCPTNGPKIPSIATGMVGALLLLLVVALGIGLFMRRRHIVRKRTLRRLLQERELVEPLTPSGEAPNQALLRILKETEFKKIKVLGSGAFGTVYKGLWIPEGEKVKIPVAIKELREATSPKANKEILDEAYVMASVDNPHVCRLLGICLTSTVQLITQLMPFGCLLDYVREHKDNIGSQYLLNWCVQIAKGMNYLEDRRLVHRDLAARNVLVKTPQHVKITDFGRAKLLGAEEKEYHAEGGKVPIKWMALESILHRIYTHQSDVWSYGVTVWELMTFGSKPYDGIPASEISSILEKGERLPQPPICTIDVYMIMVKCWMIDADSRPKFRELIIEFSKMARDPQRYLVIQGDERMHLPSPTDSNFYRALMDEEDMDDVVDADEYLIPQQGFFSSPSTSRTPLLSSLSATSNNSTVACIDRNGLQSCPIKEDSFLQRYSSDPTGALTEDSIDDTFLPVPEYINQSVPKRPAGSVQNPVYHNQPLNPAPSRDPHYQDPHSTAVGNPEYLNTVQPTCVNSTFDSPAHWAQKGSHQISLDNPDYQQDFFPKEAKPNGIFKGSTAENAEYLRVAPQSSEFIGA
T1 sequence (P04626 with tags, fused parts or gaps INS775YVMA): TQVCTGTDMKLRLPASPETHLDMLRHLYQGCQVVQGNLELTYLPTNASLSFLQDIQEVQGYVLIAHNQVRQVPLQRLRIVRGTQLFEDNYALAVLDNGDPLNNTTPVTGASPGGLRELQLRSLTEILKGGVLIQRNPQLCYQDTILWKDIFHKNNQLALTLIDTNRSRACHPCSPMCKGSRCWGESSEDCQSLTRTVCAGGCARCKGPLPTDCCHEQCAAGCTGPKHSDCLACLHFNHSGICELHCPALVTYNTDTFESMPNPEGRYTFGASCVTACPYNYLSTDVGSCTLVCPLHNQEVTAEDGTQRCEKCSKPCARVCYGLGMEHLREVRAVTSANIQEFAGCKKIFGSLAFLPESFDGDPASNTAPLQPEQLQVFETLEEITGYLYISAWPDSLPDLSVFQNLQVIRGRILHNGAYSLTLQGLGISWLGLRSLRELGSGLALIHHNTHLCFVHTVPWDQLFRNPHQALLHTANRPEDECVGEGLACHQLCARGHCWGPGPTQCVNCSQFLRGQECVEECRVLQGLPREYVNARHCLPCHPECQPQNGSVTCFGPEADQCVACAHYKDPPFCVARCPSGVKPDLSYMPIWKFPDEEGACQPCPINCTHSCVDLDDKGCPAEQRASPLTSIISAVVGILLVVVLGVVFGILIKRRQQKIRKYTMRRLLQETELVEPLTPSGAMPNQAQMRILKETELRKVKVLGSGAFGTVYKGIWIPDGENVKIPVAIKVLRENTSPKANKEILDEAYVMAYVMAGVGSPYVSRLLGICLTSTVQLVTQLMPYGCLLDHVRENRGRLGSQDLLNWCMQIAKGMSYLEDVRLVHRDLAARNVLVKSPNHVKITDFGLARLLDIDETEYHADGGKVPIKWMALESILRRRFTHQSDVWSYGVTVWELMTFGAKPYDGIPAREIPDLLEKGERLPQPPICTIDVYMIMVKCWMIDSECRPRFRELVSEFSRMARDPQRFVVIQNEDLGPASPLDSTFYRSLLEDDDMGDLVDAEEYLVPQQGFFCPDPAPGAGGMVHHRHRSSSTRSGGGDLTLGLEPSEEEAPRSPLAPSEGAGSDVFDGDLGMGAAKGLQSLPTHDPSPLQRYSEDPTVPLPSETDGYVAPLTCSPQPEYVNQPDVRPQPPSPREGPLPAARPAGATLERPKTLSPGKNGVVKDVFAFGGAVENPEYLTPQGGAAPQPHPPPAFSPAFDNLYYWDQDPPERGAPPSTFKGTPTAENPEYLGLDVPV

IC50 [1] | IC50 (EGFR L858R Ba/F3) | IC50 (EGFR wt) | IC50 [2] | IC50 (EGFR L858R) | IC50 (EGFR L858R T790M Ba/F3) | IC50 (EGFR vIII Ba/F3) | IC50 (EGFR (del746-750)) | IC50 (A431) | IC50 (HER2 INS YVMA) | IC50 (EGFR T790M L858R) | SMILES | IC50 (Cuto-17) | IC50 (H1975)
≤ 50 nM | ≤ 50 nM | ≤ 50 nM | 100 to 500 nM | ≤ 50 nM | ≤ 50 nM | ≤ 50 nM | ≤ 50 nM | 500 to 1000 nM | ≤ 50 nM | ≤ 50 nM | C=CC(=O)Nc1cc(-c2c(-c3cnn(C)c3)[nH]c3ncc(-c4cnn(C)c4C)cc23)ccc1C [Example 29, N-(5-(5-(1,5-dimethyl-1H-pyrazol-4-yl)-2-(1-methyl-1 H-pyrazol-4-yl)-1 H-pyrrolo[2,3-b]pyridin-3-yl)-2-methylphenyl)acrylamide] | – | –
500 to 1000 nM | ≤ 50 nM | ≤ 50 nM | 1000 to 10000 nM | ≤ 50 nM | 100 to 500 nM | 100 to 500 nM | ≤ 50 nM | 1000 to 10000 nM | 100 to 500 nM | ≤ 50 nM | C=CC(=O)Nc1cc(-c2c(-c3cnn(C)c3)[nH]c3ncc(-c4cnn(C5COC5)c4)cc23)ccc1C [Example 35, N-(2-methyl-5-(2-(1-methyl-1H-pyrazol-4-yl)-5-(1-(oxetan-3-yl)-1 H-pyrazol-4-yl)-1H-pyrrolo[2,3-b]pyridin-3-yl)phenyl)acrylamide] | – | –
≤ 50 nM | ≤ 50 nM | ≤ 50 nM | 100 to 500 nM | ≤ 50 nM | 50 to 100 nM | ≤ 50 nM | ≤ 50 nM | 1000 to 10000 nM | 50 to 100 nM | ≤ 50 nM | C=CC(=O)Nc1cc(-c2c(-c3cnn(C)c3)[nH]c3ncc(-c4cnn(CC)c4)cc23)ccc1C [Example 28, N-(5-(5-(1-ethyl-1H-pyrazol-4-yl)-2-(1-methyl-1 H-pyrazol-4-yl)-1 H-pyrrolo[2,3-b]pyridin-3-yl)-2-methylphenyl)acrylamide] | – | –
50 to 100 nM | ≤ 50 nM | ≤ 50 nM | 100 to 500 nM | ≤ 50 nM | 100 to 500 nM | ≤ 50 nM | ≤ 50 nM | 1000 to 10000 nM | 100 to 500 nM | 100 to 500 nM | C=CC(=O)Nc1cc(-c2c(-c3cnn(C)c3)[nH]c3ncc(-c4cnn(CC(C)C)c4)cc23)ccc1C [Example 32, N-(5-(5-(1-isobutyl-1H-pyrazol-4-yl)-2-(1-methyl-1H-pyrazol-4-yl)-1H-pyrrolo[2,3-b]pyridin-3-yl)-2-methylphenyl)acrylamide] | – | –
100 to 500 nM | ≤ 50 nM | ≤ 50 nM | 500 to 1000 nM | ≤ 50 nM | 100 to 500 nM | 50 to 100 nM | ≤ 50 nM | 1000 to 10000 nM | 100 to 500 nM | 50 to 100 nM | C=CC(=O)Nc1cc(-c2c(-c3cnn(CCO)c3)[nH]c3ncc(C(=O)OC(C)C)c(C)c23)ccc1C [Example 23, isopropyl 3-(3-acrylamido-4-methylphenyl)-2-(1-(2-hydroxyethyl)-1H-pyrazol-4-yl)-4-methyl-1 H-pyrrolo[2,3-b]pyridine-5-carboxylate] | – | –
100 to 500 nM | ≤ 50 nM | ≤ 50 nM | 500 to 1000 nM | ≤ 50 nM | 100 to 500 nM | ≤ 50 nM | ≤ 50 nM | 1000 to 10000 nM | 50 to 100 nM | ≤ 50 nM | C=CC(=O)Nc1cc(-c2c(-c3cnn(C)c3)[nH]c3ncc(-c4cnn(CCOC)c4)cc23)ccc1C [Example 33, N-(5-(5-(1-(2-methoxyethyl)-1 H-pyrazol-4-yl)-2-(1-methyl-1 H-pyrazol-4-yl)-1H-pyrrolo[2,3-b]pyridin-3-yl)-2-methylphenyl)acrylamide] | – | –
1000 to 10000 nM | > 10000 nM | ≤ 50 nM | > 10000 nM | ≤ 50 nM | 1000 to 10000 nM | 1000 to 10000 nM | ≤ 50 nM | 1000 to 10000 nM | 500 to 1000 nM | 100 to 500 nM | C=CC(=O)Nc1cc(-c2c(-c3cnn(C)c3)[nH]c3ncc(-c4cnn(CCN(C)C)c4)cc23)ccc1C [Example 34, N-(5-(5-(1-(2-(dimethylamino)ethyl)-1H-pyrazol-4-yl)-2-(1-methyl-1H-pyrazol-4-yl)-1H-pyrrolo[2,3-b]pyridin-3-yl)-2-methylphenyl)acrylamide] | – | –
100 to 500 nM | ≤ 50 nM | ≤ 50 nM | 500 to 1000 nM | ≤ 50 nM | 50 to 100 nM | 50 to 100 nM | ≤ 50 nM | 1000 to 10000 nM | 100 to 500 nM | 50 to 100 nM | C=CC(=O)Nc1cc(-c2c(-c3cnn(CC(C)O)c3)[nH]c3ncc(C(=O)OC(C)C)c(C)c23)ccc1C (stereo not drawn) [Example 24, isopropyl 3-(3-acrylamido-4-methylphenyl)-2-(1-(2-hydroxypropyl)-1H-pyrazol-4-yl)-4-methyl-1 H-pyrrolo[2,3-b]pyridine-5-carboxylate] | – | –
50 to 100 nM | ≤ 50 nM | ≤ 50 nM | 100 to 500 nM | ≤ 50 nM | ≤ 50 nM | ≤ 50 nM | ≤ 50 nM | 1000 to 10000 nM | 50 to 100 nM | ≤ 50 nM | C=CC(=O)Nc1cc(-c2c(-c3cnn(C)c3)[nH]c3ncc(-c4cnn(C5CC5)c4)cc23)ccc1C [Example 31, N-(5-(5-(1-cyclopropyl-1H-pyrazol-4-yl)-2-(1-methyl-1 H-pyrazol-4-yl)-1 H-pyrrolo[2,3-b]pyridin-3-yl)-2-methylphenyl)acrylamide] | – | –
100 to 500 nM | – | ≤ 50 nM | 100 to 500 nM | – | – | 100 to 500 nM | – | 1000 to 10000 nM | ≤ 50 nM | ≤ 50 nM | C=CC(=O)Nc1cc(-c2c(-c3cnn(CC)c3)[nH]c3ncc(C(=O)OC(C)C)cc23)ccc1C [Example 6, isopropyl 3-(3-acrylamido-4-methylphenyl)-2-(1-ethyl-1H-pyrazol-4-yl)-1H-pyrrolo[2,3-b]pyridine-5-carboxylate] | 500 to 1000 nM | 500 to 1000 nM

SMILES | IC50 [1] | IC50 (EGFR L858R Ba/F3) | IC50 (EGFR wt) | IC50 [2] | IC50 (EGFR L858R) | IC50 (EGFR L858R T790M Ba/F3) | IC50 (EGFR vIII Ba/F3) | IC50 (EGFR (del746-750)) | IC50 (A431) | IC50 (HER2 INS YVMA) | IC50 (EGFR T790M L858R) | IC50 (Cuto-17) | IC50 (H1975)
C=CC(=O)Nc1cc(-c2c(-c3cnn(C)c3)[nH]c3ncc(O[C@@H](C)CC)cc23)ccc1C [Example 12, (S)-N-(5-(5-(sec-butoxy)-2-(1-methyl-1H-pyrazol-4-yl)-1H-pyrrolo[2,3-b]pyridin-3-yl)-2-methylphenyl)acrylamide 2,2,2-trifluoroacetate] | 100 to 500 nM | – | ≤ 50 nM | 100 to 500 nM | – | – | 100 to 500 nM | – | 1000 to 10000 nM | ≤ 50 nM | ≤ 50 nM | 100 to 500 nM | 500 to 1000 nM
